# Laboratory results published in article PMC9917214, “Assessment of the Permeability of 3,4-Methylenedioxypyrovalerone (MDPV) across the Caco-2 Monolayer for Estimation of Intestinal Absorption and Enantioselectivity” (International Journal of Molecular Sciences, 2023).
# Legend:
# Caco-2 cells [1] = assay: Cell viability assay (Neutral Red) in Caco-2 cells; format: cell-based, human; conditions: 24 h, NR assay
# Protocol: MDPV cytotoxicity for the Caco-2 cell line was evaluated through the NR assay as previously described. This method provides an indication of the ability of lysosomes from viable cells to incorporate the NR dye. Caco-2 cells were seeded onto 96-well plates using a density of 60,000 cells/cm^2 to obtain confluent monolayers at the experimental day. The cells were incubated with the racemate of MDPV (0, 50, 150, 300, 500, 750, 1000, 1250, and 1500 µM) in fresh cell culture medium for 24 h. After the selected time interval, the cell culture medium was removed and replaced by a 50 µg/mL NR solution in HBSS (+/+) for 90 min, after which the NR solution was discarded, a lysis solution (50% EtOH/1% glacial acetic acid solution) was added, and the absorbance was read at 540 nm in a 96-well plate reader (PowerWaveX; Bio-Tek, Winooski, VT, USA). Additionally, 1% Triton X-100 was used as the positive control. Data were expressed as the percentage of cell viability relative to untreated cells. Data were obtained from four independent experiments performed in triplicate.
# [2] = Sample stability in HBSS (+/+) after 6 weeks of storage (UHPLC-UV peak area); format: physicochemical
# Protocol: To evaluate stability, three different calibrators within the linear concentration range (10 (low), 100 (medium), and 500 (high) μM) were prepared and injected into the UHPLC. The remaining volume of each calibrator was divided into several vials and further stored at different temperatures (room temperature, 4 °C, −20 °C, and −80 °C) for 6 weeks (the same storage time of the samples obtained from the permeability assay with Caco-2 cells). After the storage period, samples were injected in duplicate and the obtained analyte peak area for each calibrator in each temperature was compared with the peak area obtained on day 0. Percentages of peak variation were calculated for each concentration.
# Caco-2 cells [3] = conditions: racemates; cited from earlier work
# Caco-2 model = system: Caco-2 model; design: method as in PMID 32234388; conditions: cited from earlier work
# Caco-2 monolayer = assay: Permeability assay across the Caco-2 monolayer; format: in vitro ADME, human; conditions: mean ± SD; for Mass Balance (%): 300 µM in HBSS (+/+), 300 min
# Protocol: For the in vitro permeability assay, Caco-2 cells were seeded on polycarbonate transwell inserts (12-well, 0.4 μm pores, Corning) using a density of 120,000 cells/cm^2 and cultivated for twenty-one days to allow the development of a differentiated monolayer. TEER was measured to control the integrity of the monolayers for twenty-one days.
# After twenty-one days, the cells were incubated with 300 µM of each enantiomer of MDPV (in HBSS (+/+)). The assay was performed for both AP to BL and BL to AP directions. For AP to BL, exposure to the enantiomers was performed in the AP compartment (450 µL) while for BL to AP, exposure was made in the BL compartment (1250 µL). Right after the exposure (time 0), 50 µL was collected from each donor compartment (where exposure was performed). At suitable time intervals (40, 60, 90, 120, 180, 240, and 300 min), 600 µL (for AP to BL) and 200 µL (for BL to AL) of samples was collected from the BL and AP compartments (receiver compartments), respectively, and the same amount of HBSS (+/+) was added. In the last time point (300 min), 50 µL was also collected from the donor compartment. Collected samples were stored at −80 °C until the day of the UHPLC analysis. After 6 weeks of storage, samples were filtered with a 13 mm nylon syringe filter with […] pore size from Olimpeak™ and quantification was performed by the validated UHPLC-UV method. Results were obtained for three experiments, performed in duplicate.
# Mass balance was calculated using the following equation [31]:(5) % Mass balance=100×QR,T+QD,f/QD,0 where QR,T is the total cumulative quantity in the receiver chamber (nmol), QD,f is the final quantity in the donor chamber (nmol), and QD,0 is the initial quantity in the donor chamber (nmol).
# To calculate Papp, first, a determination had to be made to determine whether the results were under sink or non-sink conditions. […] If the ratio is higher, Papp has to be calculated considering a non-sink analysis.
# For sink conditions, Papp was calculated in cm/s using the following equation [24]:(6) Papp=ΔQ/Δt×1/A×C0 where ΔQ/Δt is the amount of compound over time (mol/s), A is the surface area of the monolayer (cm^2), and C0 is the initial drug concentration on the donor side (mol/mL).
# For non-sink conditions, a continuous change of the donor and receiver concentrations is considered, and the following equation must be used for each time interval to calculate the theoretical concentration at the receiver side:(7) CR(t)=(Qtot/VD+VR)+(CR(t−1)×f−Qtot/VD+VR)×e^−P×A×(1/VR+1/VD)×Δt where CR(t) is the theoretical concentration in the receiver side at time t (µM), Qtot is the total amount of drug in both chambers at time t (nmol), VR and VD are the volumes in the receiver and donor compartments (mL), respectively, CR(t-1) is the concentration in the receiver chamber at the previous time (µM), f is the dilution factor for the sample replacement, A is the surface area of the monolayer (cm^2), Δt is the time interval (s), and P is an initial approximation of the permeability coefficient calculated through Equation (6) (cm/s).
# Papp values are determined by the minimization of the Sum of Squared Residuals (SSR):(8) SSR=∑[CR(t)theor−CR(t)exp]^2 where CR(t)theor is the theoretical concentration in the receiver side at time t calculated through Equation (7) and CR(t)exp is the experimental concentration in the receiver side at time t obtained directly from the quantification of the samples. […]
compound,measurement,setting,value
"CCCC(C(=O)c1ccc2c(c1)OCO2)N1CCCC1 (centres unmarked) [MDPV, 3,4-Methylenedioxypyrovalerone]",Concentration from which a significant decrease in cell viability was observed,Caco-2 cells [1],≥ 1000 µM
same,Concentration with no statistically significant differences in cell viability,Caco-2 cells [1]; tested up to 1500 µM,≤ 750 µM
same,% peak area variation relative to day 0,"[2]; 10 µM in HBSS (+/+), 6 weeks of storage at 4 °C",10.9%
same,% peak area variation relative to day 0,"[2]; 10 µM in HBSS (+/+), 6 weeks of storage at RT",11.0%
same,% peak area variation relative to day 0,"[2]; 10 µM in HBSS (+/+), 6 weeks of storage at −20 °C",12.5%
same,% peak area variation relative to day 0,"[2]; 10 µM in HBSS (+/+), 6 weeks of storage at −80 °C",7.1%
same,% peak area variation relative to day 0,"[2]; 100 µM in HBSS (+/+), 6 weeks of storage at 4 °C",9.1%
same,% peak area variation relative to day 0,"[2]; 100 µM in HBSS (+/+), 6 weeks of storage at RT",11.9%
same,% peak area variation relative to day 0,"[2]; 100 µM in HBSS (+/+), 6 weeks of storage at −20 °C",10.4%
same,% peak area variation relative to day 0,"[2]; 100 µM in HBSS (+/+), 6 weeks of storage at −80 °C",8.6%
same,% peak area variation relative to day 0,"[2]; 500 µM in HBSS (+/+), 6 weeks of storage at 4 °C",3.4%
same,% peak area variation relative to day 0,"[2]; 500 µM in HBSS (+/+), 6 weeks of storage at RT",10.2%
same,% peak area variation relative to day 0,"[2]; 500 µM in HBSS (+/+), 6 weeks of storage at −20 °C",5.3%
same,% peak area variation relative to day 0,"[2]; 500 µM in HBSS (+/+), 6 weeks of storage at −80 °C",6.8%
CNC(C)C(=O)c1ccc2c(c1)OCO2 (centres unmarked) [methylone],Concentration range with no cytotoxic effects,Caco-2 cells [3],up to 2000 μM
CCCC(NC)C(=O)c1ccccc1 (centres unmarked) [pentedrone],Concentration range with no cytotoxic effects,Caco-2 cells [3],up to 2000 μM
CCC[C@@H](NC)C(=O)c1ccccc1 [R-(-)-pentedrone],Enantioselectivity in permeability (more permeable enantiomer),Caco-2 model,most permeable
CCC[C@@H](C(=O)c1ccc2c(c1)OCO2)N1CCCC1 [S-(-)-MDPV],Mass Balance (%),Caco-2 monolayer; AP → BL direction,100 ± 2%
same,Papp,"Caco-2 monolayer; AP → BL direction, sink conditions (Equation 6), 300 µM",1.8e-05 ± 1e-06 cm/s
same,Mass Balance (%),Caco-2 monolayer; BL → AP direction,101 ± 4%
same,Papp,"Caco-2 monolayer; BL → AP direction, non-sink conditions (Equation 7), 300 µM",3.4 × 10^−5 ± 1 × 10^−6 ****^; # cm/s
same,Efflux Ratio,"Caco-2 monolayer; Papp (BL→AP)/Papp (AP→BL), 300 µM",1.8 ± 0.2
CN[C@@H](C)C(=O)c1ccc2c(c1)OCO2 [S-(-)-methylone],Enantioselectivity in permeability (more permeable enantiomer),Caco-2 model,most permeable
